Source: BindingDB's records for patent US10188615 (ACUCELA INC., 2019)

Biological target: T1, Retinoid isomerohydrolase (Human, UniProt Q16518)
T1 sequence (Q16518 whole entry): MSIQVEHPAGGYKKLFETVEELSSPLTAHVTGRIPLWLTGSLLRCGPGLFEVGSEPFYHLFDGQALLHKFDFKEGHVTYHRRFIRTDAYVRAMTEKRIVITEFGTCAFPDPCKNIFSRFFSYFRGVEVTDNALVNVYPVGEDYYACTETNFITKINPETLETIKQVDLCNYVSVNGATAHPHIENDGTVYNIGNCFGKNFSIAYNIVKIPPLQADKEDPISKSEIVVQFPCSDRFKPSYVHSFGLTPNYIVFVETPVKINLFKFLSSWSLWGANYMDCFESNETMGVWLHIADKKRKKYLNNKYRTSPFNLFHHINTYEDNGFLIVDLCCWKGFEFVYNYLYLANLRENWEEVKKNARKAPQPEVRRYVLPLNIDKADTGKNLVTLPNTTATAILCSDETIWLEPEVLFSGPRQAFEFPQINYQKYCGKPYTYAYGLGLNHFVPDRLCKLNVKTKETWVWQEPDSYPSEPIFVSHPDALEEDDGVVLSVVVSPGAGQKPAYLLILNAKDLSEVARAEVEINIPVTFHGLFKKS
Test: In Vitro Isomerase Inhibition Assay

Row | IC50 | Structure (SMILES)
1 | in the range around 5500 nM | CCCC(O)COc1cccc(OCCN)c1 (stereo not given) [US10188615, Example 159]
2 | in the range around 550 nM | NCCOc1cccc(OCCCCO)c1 [US10188615, Example 156]
3 | in the range around 55 nM | NCCC(O)c1cccc(OCCCCCO)c1 (stereo not given) [US10188615, Example 166]
4 | in the range around 55 nM | CCCC(O)COc1cccc(C(O)CCN)c1 (stereo not given) [US10188615, Example 163]
5 | in the range around 5500 nM | NCCC(O)c1cccc(OCCCC(N)=O)c1 (stereo not given) [US10188615, Example 149]
6 | in the range around 55 nM | CC(=O)O[C@@H]1CCCC[C@@H]1COc1cccc([C@H](O)CCN)c1 [US10188615, Example 174]
7 | in the range around 55 nM | NCCC(F)c1cccc(OCC2CCCCC2)c1 (stereo not given) [US10188615, Example 193]
8 | in the range around 55 nM | NCCCc1cccc(OC[C@@H]2CCCC[C@H]2O)c1 (relative stereo) [US10188615, Example 148]
9 | in the range around 5500 nM | NCCOc1cccc(OCC(O)c2ccccc2)c1 (stereo not given) [US10188615, Example 145]
10 | in the range around 550 nM | NCCC(O)c1cccc(OCCCCO)c1 (stereo not given) [US10188615, Example 165]
11 | in the range around 550 nM | CNCCC(=O)c1cccc(OCC2CCCCC2)c1 [US10188615, Example 181]
12 | in the range around 5500 nM | N=C(N)NCc1cccc(OCC2CCCCC2)c1 [US10188615, Example 190]
13 | in the range around 550 nM | CC(C)C(O)COc1cccc(CCCN)c1 (stereo not given) [US10188615, Example 152]
14 | in the range around 5500 nM | CNC(=O)CCCOc1cccc(OCCN)c1 [US10188615, Example 133]
15 | in the range around 55 nM | NCC#Cc1cccc(OCC2CCCCC2)c1 [US10188615, Example 197]
16 | in the range around 55 nM | N=C(N)CC(O)c1cccc(OCC2CCCCC2)c1 (stereo not given) [US10188615, Example 130]
17 | in the range around 550 nM | NCCCc1cc(F)cc(OCC2CCCCC2)c1 [US10188615, Example 168]
18 | in the range around 5500 nM | NCCCc1cc(CO)cc(OCC2CCCCC2)c1 [US10188615, Example 142]
19 | in the range around 550 nM | CN(C)C(=O)CCCOc1cccc(C(O)CCN)c1 (stereo not given) [US10188615, Example 157]
20 | in the range around 5500 nM | Cc1cccc(C)c1COc1cccc(CCCN)c1 [US10188615, Example 137]
21 | in the range around 55 nM | CNCCC(O)c1cccc(OCC2CCCCC2)c1 (stereo not given) [US10188615, Example 187]
22 | in the range around 550 nM | Cc1cccc(C)c1COc1cccc(OCCN)c1 [US10188615, Example 140]

More lines, now with the values behind:

Row | Structure (SMILES) | IC50
23 | CCC(CC)COc1cccc(OCCN)c1 [US10188615, Example 36] | in the range around 55 nM
24 | NCCOc1cccc(OCc2ccccc2)c1 [US10188615, Example 8] | in the range around 550 nM
25 | CCC(CC)COc1cccc(O[C@@H](C)CN)c1 [US10188615, Example 62] | in the range around 550 nM
26 | NCC(O)c1cccc(OCC2CCCCC2)c1 (stereo not given) [US10188615, Example 127] | in the range around 550 nM
27 | CCC(CC)COc1cccc(O[C@H](C)CN)c1 [US10188615, Example 50] | in the range around 550 nM
28 | NCCS(=O)(=O)c1cccc(OCC2CCCCC2)c1 [US10188615, Example 125] | in the range around 550 nM
29 | NCCC(O)c1cccc(OCC2CCCCO2)c1 (stereo not given) [US10188615, Example 83] | in the range around 55 nM
30 | CC(CCN)c1cccc(OCC2CCCCC2)c1 (stereo not given) [US10188615, Example 81] | in the range around 55 nM
31 | COCCCOc1cccc(C(O)CCN)c1 (stereo not given) [US10188615, Example 108] | in the range around 55 nM
32 | NCCOc1cccc(OCc2c(Cl)cccc2Cl)c1 [US10188615, Example 84] | in the range around 550 nM
33 | NCCOc1cccc(OCCCc2ccccc2)c1 [US10188615, Example 89] | in the range around 550 nM
34 | CCCCCOc1cccc(CCCN)c1 [US10188615, Example 44] | in the range around 550 nM
35 | NCCC(O)c1cccc(OCCc2ccccc2)c1 (stereo not given) [US10188615, Example 54] | in the range around 55 nM
36 | CCC(O)(CC)COc1cccc(OCCN)c1 [US10188615, Example 31] | in the range around 550 nM
37 | NCCOc1cccc(OCC2(O)CCCCCC2)c1 [US10188615, Example 18] | in the range around 550 nM
38 | NCCC(O)c1cccc(OCCO)c1 (stereo not given) [US10188615, Example 109] | in the range around 5500 nM
39 | C[C@H](CN)[C@H](O)c1cccc(OCC2CCCCC2)c1 [US10188615, Example 76] | in the range around 5500 nM

Row | Structure (SMILES) | IC50
40 | CC(C)CCOc1cccc(OCCN)c1 [US10188615, Example 46] | in the range around 55 nM
41 | COCCOc1cccc(CCCN)c1 [US10188615, Example 40] | in the range around 5500 nM
42 | NCCC(O)(CO)c1cccc(OCC2CCCCC2)c1 (stereo not given) [US10188615, Example 79] | in the range around 5500 nM
43 | CCCC(CCC)COc1cccc(C[C@@H](O)CN)c1 [US10188615, Example 68] | in the range around 55 nM
44 | NCCCc1cccc(OCC2CCCC2)c1 [US10188615, Example 103] | in the range around 55 nM
45 | NCCCc1cccc(OCC2CC2)c1 [US10188615, Example 60] | in the range around 550 nM
46 | NCCCc1cccc(OCCCc2ccccc2)c1 [US10188615, Example 96] | in the range around 550 nM
47 | CCCC(CCC)COc1cccc(C[C@H](O)CN)c1 [US10188615, Example 67] | in the range around 55 nM
48 | CCCC(CCC)COc1cccc(O[C@H](C)CN)c1 [US10188615, Example 51] | in the range around 550 nM
49 | CCCC(CCC)COc1cccc(O[C@@H](C)CN)c1 [US10188615, Example 63] | in the range around 550 nM
50 | NCCOc1cccc(OCC2CCCC2)c1 [US10188615, Example 104] | in the range around 55 nM
51 | C[C@H](CN)Oc1cccc(OCC2CCCCC2)c1 [US10188615, Example 53] | in the range around 550 nM
52 | NCCCc1cccc(OCc2c(Cl)cccc2Cl)c1 [US10188615, Example 91] | in the range around 550 nM
53 | C[C@H](CN)Oc1cccc(OCC2CCCC2)c1 [US10188615, Example 52] | in the range around 550 nM
54 | COc1ccccc1COc1cccc(OCCN)c1 [US10188615, Example 101] | in the range around 550 nM
55 | NCCOc1cccc(OCCCOCc2ccccc2)c1 [US10188615, Example 94] | in the range around 550 nM
